The record followed here is publication PMC4252262 (Chemico-biological interactions, 2014).

SMILES strings stand for the structures. Values joined by “and” are separate entries in the source; they are usually repeats but may differ in a detail not shown here. Equal entries are not always repeated. Where two headings read alike, the source gives them in different places.

A word on the Ki: it is a dissociation constant, usually derived from enzyme kinetics or from competition with a known ligand. High values mean a looser hold on the target, low ones a stronger hold on the target.

Common to all, as to assay type: biochemical
Data set [1] has as its target human cytochrome P450_2E1 (Homo sapiens, UniProt P05181). Put plainly: Inhibition of P450 2E1. The following applies: for Ki: KI for inhibition of 2E1, competitive model, p-nitrophenol substrate; for fold difference in 2E1 KI, branched versus linear 10-carbon aldehyde: decanal vs citronellal, decenal vs citral.
The target in another data set is 2E1 (Homo sapiens, UniProt P05181). Particulars: 25 μM; 15 min pre-incubation at 37 °C in the presence of 1 mM NADPH; positive control.
Sequence of 2E1 (P05181 whole entry): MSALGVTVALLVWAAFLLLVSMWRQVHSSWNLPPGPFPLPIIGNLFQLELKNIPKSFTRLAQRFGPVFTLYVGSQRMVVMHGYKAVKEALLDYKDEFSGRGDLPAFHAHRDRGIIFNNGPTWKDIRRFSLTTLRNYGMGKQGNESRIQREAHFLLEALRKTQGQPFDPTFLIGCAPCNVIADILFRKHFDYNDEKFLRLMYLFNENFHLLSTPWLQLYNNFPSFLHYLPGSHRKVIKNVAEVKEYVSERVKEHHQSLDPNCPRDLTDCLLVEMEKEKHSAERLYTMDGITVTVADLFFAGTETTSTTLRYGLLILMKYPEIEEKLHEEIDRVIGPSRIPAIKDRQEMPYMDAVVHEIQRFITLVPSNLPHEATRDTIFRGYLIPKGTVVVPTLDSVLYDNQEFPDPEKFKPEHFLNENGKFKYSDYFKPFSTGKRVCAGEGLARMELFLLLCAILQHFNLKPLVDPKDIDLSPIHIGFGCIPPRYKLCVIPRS
Data set [2] has as its target T1, human cytochrome P450_2A6 (Homo sapiens, UniProt P11509).
T1 sequence (P11509 1-494): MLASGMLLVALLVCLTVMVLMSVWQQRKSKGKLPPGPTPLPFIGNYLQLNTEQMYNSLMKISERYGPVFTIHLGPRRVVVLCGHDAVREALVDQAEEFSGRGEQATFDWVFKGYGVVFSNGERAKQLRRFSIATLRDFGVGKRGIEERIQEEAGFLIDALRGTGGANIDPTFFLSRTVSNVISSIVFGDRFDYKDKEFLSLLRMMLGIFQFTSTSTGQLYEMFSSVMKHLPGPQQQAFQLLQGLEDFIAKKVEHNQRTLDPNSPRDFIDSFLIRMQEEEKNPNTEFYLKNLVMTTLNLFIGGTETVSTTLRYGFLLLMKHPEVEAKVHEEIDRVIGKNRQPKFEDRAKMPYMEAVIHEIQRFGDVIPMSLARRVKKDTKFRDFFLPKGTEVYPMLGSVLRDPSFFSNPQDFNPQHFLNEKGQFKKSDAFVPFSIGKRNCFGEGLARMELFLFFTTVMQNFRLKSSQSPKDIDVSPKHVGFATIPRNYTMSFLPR
Put plainly: Inhibition of P450 2A6.

In data set [3] the target is expressed cytochrome P450_2E1 in supersomes (Homo sapiens, UniProt P05181). Put plainly: Aldehyde oxidation to carboxylic acid by expressed human P450 2E1 supersomes. Particulars: for NADPH-dependent oxidation of aldehyde by expressed 2E1: 100-120 μM aldehyde, 1.0 mM NADPH, 45 min, 37 °C; for effect on the rate of acid formation from trans-2-octenal: 1.0 mM added, 2E1 supersomes.
Sequence of expressed cytochrome P450_2E1 in supersomes (P05181 whole entry): as the sequence (P05181 whole entry) above

Data set [4] concerns the target T2, expressed 2A6 (supersomes) (Homo sapiens, UniProt P11509).
T2 sequence (P11509 1-494): T1 sequence (P11509 1-494)
Put plainly: Aldehyde oxidation to carboxylic acid by expressed human P450 2A6 supersomes. Particulars: 100-120 μM aldehyde, 1.0 mM NADPH, 45 min, 37 °C.

Where [5] appears, read: KI for inhibition of 2A6, competitive model, coumarin substrate.

Sequence of human cytochrome P450_2E1 (P05181 whole entry): as the sequence (P05181 whole entry) above

With `CCCCCCCCCC=O` [Decyl Saturated, decanal], in data set [1], the affinity corresponds to a Ki of 7 µM and the “fold difference in 2E1 KI, branched versus linear 10-carbon aldehyde” value is given as “about 8 fold”.

In the case of `C=CCCCCCCCCC=O` [11-undecylenic aldehyde], the “loss of the activity of 2E1 after pre-incubation” value at 2E1 is ~ 50%.

In data set [2], `CCCCCCCC=O` [Octyl Saturated] came in with a Ki of 25 ± 2 µM.

With `CCCCCCCC/C=C/C=O` [Undecy Unsaturated], in data set [2], the inhibition constant (Ki) is 103 ± 22 µM.

`CCC=CC=O` [Pentyl Unsaturated] yielded an inhibition constant (Ki) in data set [2] of 1270 ± 150 µM. On to `CCCC/C=C/C=O` [Heptyl Unsaturated, trans-2-heptenal], for which the “NADPH-dependent oxidation of aldehyde by expressed 2E1” value in data set [3] is listed as “effective in the oxidation”. Moreover, in data set [4], the “NADPH-dependent oxidation of aldehyde by expressed 2A6” value is reported as “no acid products”.

On to `CC(C)=CCCC(C)=CC=O` [citral, 3,7-dimethyl 2,6-octadienal], for which the Ki in data set [2] (setting [5]) was greater than 100 µM. Also, in data set [1], the Ki was 18.8 µM and 15.7 µM; the “fold difference in 2E1 KI, branched versus linear 10-carbon aldehyde” value came out at 5 fold. In addition, the “mode of inhibition of 2E1” value in data set [1] (Michaelis-Menten model) is given as “reversible competitive inhibition”. On to `CCCCCCCCC=O` [Nonyl Saturated], for which affinity in data set [2] was put at a Ki of 55 ± 6 µM. Still for that read-out and setting: then `CCC/C=C/C=O` [Hexyl Unsaturated], with 33 ± 3 µM. Turning to `O=C1O[C@H]([C@@H](O)CO)C(O)=C1O` [ascorbate, reference compound], in data set [3], the “effect on the rate of acid formation from trans-2-octenal” value was “no effect”.

`CCCCC=O` [Pentyl Saturated] displayed a Ki in data set [2] of 126 ± 16 µM. `CCCCCCC=O` [Heptyl Saturated, heptanal] returned an inhibition constant Ki in data set [2] (setting [5]) of 15.8 ± 1.1 µM. Regarding `CCCCCCC/C=C/C=O` [Decyl Unsaturated, trans-2-decenal], in data set [3], the “NADPH-dependent oxidation of aldehyde by expressed 2E1” value is reported as “effective in the oxidation”. The “NADPH-dependent oxidation of aldehyde by expressed 2A6” value in data set [4] is “no acid products”. With `CCCCCC/C=C/C=O` [Nonyl Unsaturated, trans-2-nonenal], the “NADPH-dependent oxidation of aldehyde by expressed 2E1” value in data set [3] is given as “effective in the oxidation”. Further, the “NADPH-dependent oxidation of aldehyde by expressed 2A6” value in data set [4] is reported as “no acid products”. For the molecule `CCCCCCCCCCCC(=O)O` [lauric acid, reference compound], in data set [1] (concentration of 50 μM), the “reduction of the activity of 2E1” value was determined as 50%. Turning to `N[C@@H](CCC(=O)N[C@@H](CS)C(=O)NCC(=O)O)C(=O)O` [glutathione, reference compound], the “effect on the rate of acid formation from trans-2-octenal” value in data set [3] is “no effect”. In data set [2], `CCCCCC=O` [Hexyl Saturated] yielded a Ki of 57 ± 7 µM.

For `CCCCC/C=C/C=O` [Octyl Unsaturated, trans-2-octenal], the “NADPH-dependent oxidation of aldehyde by expressed 2E1” value in data set [3] was “effective in the oxidation”. The “NADPH-dependent oxidation of aldehyde by expressed 2A6” value in data set [4] is “no acid products”.
